Assay results taken from article PMC5668376, “Stochastic palmitoylation of accessible cysteines in membrane proteins revealed by native mass spectrometry” (Nature Communications, 2017).

Molecular target: T1, bacteriorhodopsin (Halobacterium salinarum, UniProt P02945)
T1 construct: gene bop; synthetic gene (GeneArt), start codon from vector, C-terminal triple StrepII tag, transiently expressed retinal-free in HEK293-EBNA1, purified in DDM; cysteine-free parent protein
T1 sequence (P02945 14-262): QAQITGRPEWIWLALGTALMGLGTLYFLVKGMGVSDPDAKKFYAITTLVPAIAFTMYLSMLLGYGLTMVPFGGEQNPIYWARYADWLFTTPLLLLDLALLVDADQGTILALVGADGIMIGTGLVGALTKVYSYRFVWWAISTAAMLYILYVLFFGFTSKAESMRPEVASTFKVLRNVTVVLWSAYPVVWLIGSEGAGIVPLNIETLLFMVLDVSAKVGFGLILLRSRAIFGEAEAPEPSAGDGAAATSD
Test: native mass spectrometry of purified protein
Type: binding
Details: retinal added during purification; DDM micelles; 150 mM ammonium acetate pH 7.5; isomer not stated

CC1=C(/C=C/C(C)=C/C=C/C(C)=C/C=O)C(C)(C)CCC1 [retinal]
native mass spectrometry of purified protein: Upon addition of retinal during purification, bacteriorhodopsin mass spectra indicated peaks corresponding to the mass
